Measurements taken from patent US8980796B2, “Crystal modification of Mesotrione” (Agan Chemical Manufacturers Ltd., priority 2009, dated 2015).
Entries after “also recorded” stand apart in the source; their conditions may differ. Where two headings read alike, the source gives them in different places.

Legend:
[1] = per WO 2007/083242, WO 2006/021743, cited from earlier work
[2] = test system: corn varieties; assay: Selectivity pot trials, overall phytotoxicity on crops; assay type: in vivo; details: corn varieties tested; 3500 ml/ha (equivalent to 350g a.i./ha)
Description: The selectivity of two Mesotrione 100SC (containing 100 g/l mesotrione) formulations was compared for two crystal modifications (1 and 3).
The test was performed on three corn varieties. The corn varieties were sown in plastic pots (400 cc) filled with heavy soil. Each treatment was sprayed in 5 replicates. The trial was performed in a glasshouse with controlled temperature (20-30°).
Post emergence spraying was performed two weeks after sowing. The trials were sprayed with a mechanical sprayer, with a spray volume of 200 L/ha (equivalent to 3500 ml/ha mesotrione 100SC). The plants were irrigated 24 H (hours) after spraying. Selectivity evaluations were conducted during the trial according to the following scale: • 0=Crop completely dead (necrotic). • 100=Plants without any phytotoxic damage.

CS(=O)(=O)c1ccc(C(=O)C2C(=O)CCCC2=O)c([N+](=O)[O-])c1 [Mesotrione form 2, 2-[4-(methylsulfonyl)-2-nitrobenzoyl]-1,3-cyclohexanedione]
thermodynamic stability of the polymorphic form ([1]; listed as Form 2): thermodynamically unstable

CS(=O)(=O)c1ccc(C(=O)C2C(=O)CCCC2=O)c([N+](=O)[O-])c1 [Mesotrione form 3, 2-[4-(methylsulfonyl)-2-nitrobenzoyl]-1,3-cyclohexanedione]
phytotoxicity on crops as compared to mesotrione form 1 [2]: decreased phytotoxicity; also recorded: low phytotoxicity

CS(=O)(=O)c1ccc(C(=O)C2C(=O)CCCC2=O)c([N+](=O)[O-])c1 [Mesotrione form 1, 2-[4-(methylsulfonyl)-2-nitrobenzoyl]-1,3-cyclohexanedione]
thermodynamic stability of the polymorphic form ([1]; listed as Form 1): thermodynamically stable
